Results from PubChem BioAssay (NCI).
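The compound was tested at five concentrations on cells cultured in 96-well plates, with a 48-hour exposure period. GI50: concentration for 50% inhibition of growth. TGI is the concentration that stops growth completely.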

Legend:
Assay in all cases: DTP human tumour cell line panel, 48 h
[1] = test system: A498 renal
[2] = test system: COLO 205 colon
[3] = test system: LOX IMVI melanoma
[4] = test system: MDA-MB-435
[5] = test system: RXF 393 renal
[6] = test system: SK-OV-3 ovarian
[7] = test system: SR leukemia
[8] = test system: SW-620 colon
[9] = test system: UACC-62 melanoma
[10] = test system: UO-31 renal

Row | Compound | GI50 [1] [µM] | TGI [1] [µM] | GI50 [2] [µM] | TGI [2] [µM] | GI50 [3] [µM] | TGI [3] [µM] | GI50 [4] [µM] | TGI [4] [µM] | GI50 [5] [µM] | TGI [5] [µM] | GI50 [6] [µM] | TGI [6] [µM] | GI50 [7] [µM] | TGI [7] [µM] | GI50 [8] [µM] | TGI [8] [µM] | GI50 [9] [µM] | TGI [9] [µM] | GI50 [10] [µM] | TGI [10] [µM]
1 | CC(=N\O)/C(C)=N/O.CC(=N\O)/C(C)=N/O.CC(=N\O)/C(C)=N/O.CC(=N\O)/C(C)=N/O.[Cu].[Cu] | 24.4 | 39.1 | 18.8 | 34 | 19 | 35.3 | 18.5 | 33.7 | 21.5 | 39.3 | 18.6 | 34.5 | 24 | 61.4 | 21.5 | 45.9 | 17.1 | 30.8 | 13.4 | 27.3
2 | Cc1cc(=O)c2cc(N=Cc3ccc([N+](=O)[O-])o3)ccc2o1 |  | > 100 |  | > 100 |  | > 100 |  | > 100 |  |  |  | > 100 |  | > 100 |  | > 100 |  | > 100 |  | > 100
3 | Cn1cc(NC(=O)c2cc(NC(=O)Nc3cc(C(=O)Nc4cc(C(=O)NCCC(=N)N)n(C)c4)n(C)c3)cn2C)cc1C(=O)NCCC(=N)N |  | 63.2 |  | 92.9 |  | 70.1 |  |  |  | 42.9 |  | > 100 |  | > 100 |  | > 100 |  | 53.2 |  | > 100
4 | CNC(=O)c1c(NC(=O)c2cccc(C(F)(F)F)c2)sc2c1CCC(=O)C2 | 1.67 | 5.71 | 0.382 | 1.48 | 0.339 | 1.66 | 0.544 | 3.1 | 0.326 | 1.97 | 2.22 | 8.24 | 0.191 | > 100 | 0.254 | 1.75 | 0.414 | 2.14 | 0.197 | 0.77
5 | COc1ccc(-c2nsc3c2NC(=O)CC3c2ccc3c(c2)OCO3)cc1 (stereo not drawn) | 1.05 | 7.05 | 0.627 | 3.72 |  |  | 0.219 | 0.539 | 1.38 | 7.88 | 2.33 | > 100 | 0.401 | 39.3 | 0.514 | > 100 | 1.21 | > 100 | 5.09 | > 100
6 | COc1ccc(Nc2ccnc(NCCNc3ccnc4cc(Cl)ccc34)n2)cc1 | 0.874 | 4.92 | 1.45 | 3.24 | 1.44 | 2.96 | 1.5 | 2.9 | 1.39 | 3.41 | 7.21 | 20.5 | 2.12 | 7.51 | 1.6 | 10.2 | 1.8 | 3.62 | 1.5 | 3.7
7 | O=c1[nH]cnc2c1nnn2C1OC(CO)C(O)C1O (stereo not drawn) | 5 | > 100 | 1.44 | 9.94 | 0.779 | > 100 | 3.51 | > 100 | 1.62 | 32.2 | 0.375 | > 100 | 3.37 | > 100 | 1.69 | > 100 | 4.65 | 42.8 | 2.75 | > 100
8 | CCN(CC)CCOc1ccc(Nc2ncc3cc(-c4c(Cl)cccc4Cl)c(=O)n(CCOC)c3n2)cc1 | 0.0235 | 0.16 | 0.148 | 2.43 | 0.0318 | 0.153 | 0.469 | 2.5 | 0.0184 | 0.133 | 0.064 | 7.35 | 0.459 | 2.15 | 1.2 | 5.86 | 0.206 | 7.04 | 0.012 | 0.179
9 | CC(=O)O[C@H]1CC[C@@]2(C)C(CC[C@]3(C)C2CC[C@]2(C)Oc4c(C)cc(O)cc4C[C@@H]23)C1(C)C (stereo partly drawn) |  | 26 |  | 29.7 |  | 23.8 |  |  |  | 7.09 |  | 22.2 |  | 7.12 |  | 5.71 |  | 23.7 |  | 14.3
10 | CNc1nc(C)c(-c2nc(Nc3cccc(S(N)(=O)=O)c3)ncc2F)s1 | < 0.0168 | < 0.0308 | 0.0212 | 0.0532 | 0.0223 | 3.94 | 0.0379 | 2.45 | 0.0176 | 0.0301 | 0.0925 | 12.4 | 0.0171 | 1.15 | 0.0283 | 14.7 | 0.0224 | 0.0741 | 0.035 | 0.505
11 | NC1C2C(CC(=O)O)OCC=C3CN4CCC1(C(=O)C(=O)O)C4CC32 (stereo not drawn) |  | > 100 |  | > 100 |  | > 100 |  | > 100 |  | > 100 |  | > 100 |  | > 100 |  | > 100 |  | > 100 |  | > 100
12 | Nc1c(C(=O)c2cccc(-c3ccc[n+]([O-])c3)c2)cnn1-c1ccc(F)cc1F | > 25 | > 25 | > 25 | > 25 | > 25 | > 25 | 15.2 | > 25 | > 25 | > 25 | > 25 | > 25 | 17.8 | > 25 | > 25 | > 25 | > 25 | > 25 | > 25 | > 25
13 | O=C1c2ccccc2-c2c1c1ccc([N+](=O)[O-])cc1c(=O)n2CCNCCCNCCn1c2c(c3ccc([N+](=O)[O-])cc3c1=O)C(=O)c1ccccc1-2 | 1.82 | 19.1 | 0.433 | 9.77 | 0.0791 | 2.55 | 1.39 | 18.1 | 0.389 | 13.8 | 6.75 | 22.9 | 0.005 | 18.8 | 0.0641 | 5.68 | 0.372 | 2.03 | 0.541 | 6.84
14 | CC1=C(C)CC2(SC1)C(=O)c1ccccc1C2=O |  | > 100 |  | > 100 |  | > 100 |  |  |  | > 100 |  | > 100 |  | > 100 |  | > 100 |  | > 100 |  | > 100
15 | COc1ccccc1/C=C1\CCC(CNc2ccc(Cl)cc2)C1=O (stereo not drawn) |  | 27 |  | > 32.7 |  | 9.22 |  |  |  | 30.3 |  | 16.8 |  | 26.5 |  | 20 |  | 3.48 |  | 16.1
16 | C=C1C(=O)O[C@H]2[C@H]1CC/C(CNS(=O)(=O)c1ccc3ccccc3c1)=C\CC[C@@]1(C)O[C@@H]21 | 10.2 | 21.8 | 1.16 | 2.69 | 1.43 | 2.77 | 2.35 | 7.37 | 1.3 | 2.65 | 16.3 | 30 | 1.23 | 7.12 | 1.01 | 2.44 | 1.64 | 4.01 | 1.34 | 2.78

Row | Compound | GI50 [1] [µM] | TGI [1] [µM] | GI50 [2] [µM] | TGI [2] [µM] | GI50 [3] [µM] | TGI [3] [µM] | GI50 [4] [µM] | TGI [4] [µM] | GI50 [5] [µM] | TGI [5] [µM] | GI50 [6] [µM] | TGI [6] [µM] | GI50 [7] [µM] | TGI [7] [µM] | GI50 [8] [µM] | TGI [8] [µM] | GI50 [9] [µM] | TGI [9] [µM] | GI50 [10] [µM] | TGI [10] [µM]
17 | C=C1C(=O)O[C@H]2[C@H]1CC/C(CNC(=O)/C=C/c1cccc(OC)c1)=C\CC[C@@]1(C)O[C@@H]21 | 1.82 | 5.85 | 1.34 | 2.85 | 1.28 | 2.63 | 1.53 | 5.04 | 1.05 | 2.33 | 11.2 | 23.3 | 0.537 | 10.5 | 0.958 | 2.33 | 1.43 | 2.92 | 1.29 | 2.61
18 | CCc1ccc(-c2ccc(=O)n(-c3ccc(S(N)(=O)=O)cc3)n2)cc1 | 8.86 | > 61.4 | 1.95 | > 55.6 | 11.7 | > 100 | 0.252 | 1.71 | 3.89 | 31.5 | 4.44 | > 100 | 0.0659 | 0.497 | 0.56 | > 100 | 0.84 | > 100 | > 100 | > 100
19 | CCN(CC)CC(=O)/C=C/c1ccc(C)cc1 |  | > 100 |  | 34.5 |  | 34.4 |  |  |  | 44.2 |  | 82.5 |  | 78.8 |  | 30.3 |  | 32.5 |  | 39.8
20 | CNS(=O)(=O)NN(C)S(=O)(=O)c1ccc(Cl)cc1 |  | > 100 |  | > 100 |  | > 100 |  |  |  | > 100 |  |  |  | > 100 |  | > 100 |  | > 100 |  | > 100
21 | COc1ccc(S(=O)(=O)N/N=C/CN2C(=O)c3ccccc3C2=O)cc1OC |  | > 100 |  | > 100 |  | > 100 |  |  |  | > 100 |  | > 100 |  | > 100 |  | > 100 |  | > 100 |  | > 100
22 | Cn1ccnc1C(c1nccn1C)C(C)(C)[N+](=O)[O-] |  | > 100 |  | > 100 |  | > 100 |  |  |  | > 100 |  | > 100 |  | > 100 |  | > 100 |  | 56.6 |  | 
23 | N=S(=O)(c1ccccc1)c1ccccc1[N+](=O)[O-] (stereo not drawn) |  | > 100 |  | > 100 |  |  |  |  |  | > 100 |  | > 100 |  | > 100 |  | > 100 |  | > 100 |  | > 100
24 | C=CCC12CCC(=O)C=C1CCC1(C2)OCCO1 (stereo not drawn) |  | > 100 |  | > 100 |  |  |  |  |  | > 100 |  | > 100 |  | > 100 |  | > 100 |  | > 100 |  | > 100
25 | OCCN(CCO)c1cccc(N(CCO)CCO)c1 |  | > 100 |  | > 100 |  | > 100 |  |  |  | > 100 |  | > 100 |  | > 100 |  | > 100 |  | > 100 |  | 92.2
26 | O=C(Cn1c(=O)c(-c2ccccc2)nc2ccccc21)c1cccnc1 |  |  | > 100 | > 100 | > 100 | > 100 | > 100 | > 100 |  |  | > 100 | > 100 | > 100 | > 100 | > 100 | > 100 | > 100 | > 100 | > 100 | > 100
27 | O=Nc1c(-c2cccc([N+](=O)[O-])c2)nc2cnccn12 |  |  |  | 66.7 |  | 28.5 |  | 43.1 |  | > 100 |  | > 100 |  | 18.4 |  | 35.7 |  | 36.8 |  | 25.2
28 | O=C1c2ccccc2-c2nccc3cc(Cl)nc1c23 | 6.21 | 32.5 |  |  | 1.13 | 2.33 | 1.41 | 2.84 |  |  | 35.9 | > 100 | 1.34 | 4.18 | 1.15 | 2.37 | 2.77 | 13 |  | 
29 | CCON=C1C(C)(C)C(C)(C)C(C)(C)C1(C)C |  | > 100 |  | > 100 |  | > 100 |  | > 100 |  | > 100 |  | > 100 |  | > 100 |  | > 100 |  | > 100 |  | 
30 | COc1cc(C(=O)/C=C/c2c(-c3ccc(F)cc3)nc3sc(C)cn23)cc(OC)c1OC |  |  | 4.94 | > 100 | 2.5 | > 100 | 1.75 | 6.92 | 5.75 | > 100 | 6.12 | > 100 | 0.802 | > 100 | 5.34 | > 100 | 2.91 | > 100 | 2.95 | > 100
31 | CS(=O)(=O)OCCN1CCN(C(=O)c2cccc3c(Nc4ccc(S(N)(=O)=O)cc4)c4ccccc4nc23)CC1 |  | > 100 |  | > 82.8 |  | > 59.1 |  |  |  | > 100 |  | > 100 |  | > 100 |  | > 55.8 |  | > 100 |  | > 100
32 | O=S(=O)([O-])[O-].[Cl-].[NH2-].[NH2-].[NH2-].[NH2-].[Ru+3].c1ccc(-c2cccnc2)cc1 | > 100 | > 100 | > 100 | > 100 | > 100 | > 100 |  |  |  |  | > 100 | > 100 | > 100 | > 100 | > 100 | > 100 | > 100 | > 100 | > 100 | > 100
